The test has as its target T1, Recombinant human H-PGDS (Homo sapiens, UniProt O60760).
T1 construct: made in house; host or cells: E. coli
Description: H-PGDS inhibitory activity (prostaglandin D2 production from prostaglandin H2, measured by LC-MS/MS). The note with it: recombinant human H-PGDS 1.0 nM expressed in E. coli; prostaglandin H2 25 μM; preincubated 15 minutes on ice, reacted on ice for 1 minute; concentration that inhibits prostaglandin D2 production by 50%. The test is classed as biochemical. Here is the method: The H-PGDS inhibitory activity of each Example compound was measured according to the method reported by LIN, Jiang. et al. (NO 2007/041634).
Recombinant human H-PGDS (final concentration: 1.0 nM) expressed in E. coli was mixed in an assay buffer containing 20 mM Tris-HCl (pH 8.0), 2 mM magnesium chloride, 2 mM reduced glutathione, and 0.5 mg/mL γ-globulin, and 150 μL of the mixture was dispensed into a 8-strip PCR tube (BM Equipment Co., Ltd.). Test compounds (Example compounds) (16.5 μL) at various concentrations dissolved in DMSO were added and the mixture was preincubated for 15 minutes on ice.
Prostaglandin H2 (final concentration: 25 μM) (Cayman Chemical) was dispensed into another 8-strip PCR tube, and the solvent was dried and solidified using a vacuum concentrator (Thermo Fisher Scientific). To the dried and solidified prostaglandin H2 was added 50 μL of the assay buffer containing H-PGDS and each test compound after the preincubation, and the mixture was reacted on ice for 1 minute. 45 μL of this mixture was added to 45 μL of a stop solution (50 mM aqueous citric acid solution containing iron chloride at a final concentration of 4 mg/mL) to stop the reaction. Then, the reaction solution was deproteinized, added to a 96 square deep well plate (SHONANMARUHACHI STEC Co., Ltd.), and the prostaglandin D2 concentration in the reaction solution was measured by LC-MS/MS. ACQUITY (registered trademark) TQD (Waters) was used as a measuring instrument.
Prostaglandin Da production activity (f) in the group with each test compound when a value obtained by subtracting the amount of production of prostaglandin D2 in the group without enzyme, which is non-specific production of prostaglandin D2, from the amount of production of prostaglandin Da in the group without test compound (DMSO-addition group) in each 8-strip PCR tube is 100% was calculated.

T1 sequence (O60760 whole entry): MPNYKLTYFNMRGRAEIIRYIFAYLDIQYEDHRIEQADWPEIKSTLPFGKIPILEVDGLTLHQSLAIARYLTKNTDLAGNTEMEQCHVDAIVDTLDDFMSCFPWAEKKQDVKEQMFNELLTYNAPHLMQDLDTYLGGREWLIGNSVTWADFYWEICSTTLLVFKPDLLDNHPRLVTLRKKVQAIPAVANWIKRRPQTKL

Take `O=C(NCc1ccc(Cl)cc1)c1ccc(-c2nccc3[nH]ccc23)cc1` [Example 58, N-(4-chlorobenzyl)-4-(1H-pyrrolo[3,2-c]pyridin-4-yl)benzamide]: the IC50 (commonly the concentration needed to halve the response being measured) came out at 0.64 nM.

Turning to `CC(C)(O)c1cnc(N2CCC(NC(=O)c3ccc(-c4nccc5occc45)cc3)CC2)nc1` [Example 185, 4-(furo[3,2-c]pyridin-4-yl)-N-{1-[5-(2-hydroxypropan-2-yl)pyrimidin-2-yl]piperidin-4-yl}benzamide], the IC50 came to 1.7 nM.

Take `O=C(Nc1cc(-c2ccccc2)[nH]n1)c1ccc(-c2nccc3occc23)cc1` [Example 100, 4-(furo[3,2-c]pyridin-4-yl)-N-(5-phenyl-1H-pyrazol-3-yl)benzamide]: the 50% inhibitory concentration (IC50) was 19 nM.

On to `O=C(N[C@@H]1CN(c2ncc(CO)cn2)C[C@@H]1F)c1ccc(-c2nccc3occc23)cc1` [Example 204, N-{(3R,4S)-4-fluoro-1-[5-(hydroxymethyl)pyrimidin-2-yl]pyrrolidin-3-yl}-4-(furo[3,2-c]pyridin-4-yl)benzamide], for which the IC50 was found to be 1.1 nM.

Take `Cc1cc2occc2c(-c2ccc(C(=O)N[C@H]3CC[C@H](OCC(C)(C)O)CC3)cc2)n1` [Example 342, N-[trans-4-(2-hydroxy-2-methylpropoxy)cyclohexyl]-4-(6-methylfuro[3,2-c]pyridin-4-yl)benzamide]: the IC50 worked out at 3 nM.

`CC(=O)N(C(C)=O)c1cnc(N2CCC(NC(=O)c3ccc(-c4nccc5occc45)cc3)CC2)nc1` [Example 188, N-{1-[5-(N-acetylacetamide)pyrimidin-2-yl]piperidin-4-yl}-4-(furo[3,2-c]pyridin-4-yl)benzamide]: the IC50 worked out at 4.3 nM.

With `O=C(NC1CCN(CC(F)(F)F)CC1)c1ccc(-c2nccc3occc23)cc1` [Example 180, 4-(furo[3,2-c]pyridin-4-yl)-N-[1-(2,2,2-trifluoroethyl)piperidin-4-yl]benzamide], the IC50 worked out at 0.96 nM.

With `Cc1cc(=O)[nH]c(N2CCC(NC(=O)c3ccc(-c4nccc5occc45)cc3)CC2)n1` [Example 181, 4-(furo[3,2-c]pyridin-4-yl)-N-[1-(4-methyl-6-oxo-1,6-dihydropyrimidin-2-yl)piperidin-4-yl]benzamide], the IC50 amounted to 1.2 nM.

As for `O=C(NC1CCN(c2ccnc(F)c2)CC1)c1ccc(-c2nccc3occc23)cc1` [Example 159, N-[1-(2-fluoropyridin-4-yl)piperidin-4-yl]-4-(furo[3,2-c]pyridin-4-yl)benzamide], the IC50 was determined as 1.3 nM.

Consider `CC(C)(O)[C@H]1CC[C@H](NC(=O)c2ccc(-c3nc(N)cc4occc34)cc2)CC1` [Example 315, 4-(6-aminofuro[3,2-c]pyridin-4-yl)-N-[trans-4-(2-hydroxypropan-2-yl)cyclohexyl]benzamide], for which the half-inhibitory concentration (IC50) amounted to 2.6 nM.

Turning to `CC(O)c1cnc(-c2ccc(C(=O)N[C@H]3CC[C@H](C(C)(C)O)CC3)cc2)c2ccoc12` (stereo partly drawn) [Example 141, 4-[7-(1-hydroxyethyl)furo[3,2-c]pyridin-4-yl]-N-[trans-4-(2-hydroxypropan-2-yl)cyclohexyl]benzamide], the half-inhibitory concentration (IC50) amounted to 160 nM.

`NC(=O)C12CCC(NC(=O)c3ccc(-c4nccc5occc45)cc3)(CC1)CC2` [Example 352, 4-[4-(furo[3,2-c]pyridin-4-yl)benzamide]bicyclo[2.2.2]octane-1-carboxamide]: the half-inhibitory concentration (IC50) is 0.89 nM.

Take `CC(C)(O)[C@H]1CC[C@H](NC(=O)c2ccc(-c3nccc4occc34)cc2F)CC1` [Example 126, 2-fluoro-4-(furo[3,2-c]pyridin-4-yl)-N-[trans-4-(2-hydroxypropan-2-yl)cyclohexyl]benzamide]: the IC50 is 13 nM.

For `O=C(NC1CCN(c2ccnc(Cl)c2)CC1)c1ccc(-c2nccc3occc23)cc1` [Example 165, N-[1-(2-chloropyridin-4-yl)piperidin-4-yl]-4-(furo[3,2-c]pyridin-4-yl)benzamide], the IC50 was 1.3 nM.

As to `O=C(NCc1ccccc1Cl)c1ccc(-c2nccc3[nH]ccc23)cc1` [Example 56, N-(2-chlorobenzyl)-4-(1H-pyrrolo[3,2-c]pyridin-4-yl)benzamide], the half-maximal inhibitory concentration (IC50) came to 1.7 nM.

For the compound `COCCCNC(=O)c1ccc(-c2nccc3occc23)cc1` [Example 79, 4-(furo[3,2-c]pyridin-4-yl)-N-(3-methoxypropyl) benzamide], the half-maximal inhibitory concentration (IC50) came to 27 nM.

As to `O=C(NC1CCC1)c1ccc(-c2nccc3occc23)cc1` [Example 86, N-cyclobutyl-4-(furo[3,2-c]pyridin-4-yl)benzamide], the IC50 was determined as 21 nM.

For the compound `O=C(NC12CCC(O)(CC1)CC2)c1ccc(-c2nccc3occc23)c(F)c1` [Example 345, 3-fluoro-4-(furo[3,2-c]pyridin-4-yl)-N-(4-hydroxybicyclo[2.2.2]octan-1-yl)benzamide], the half-inhibitory concentration (IC50) was determined as 1.2 nM.

Take `CCn1nccc1CNC(=O)c1ccc(-c2nccc3[nH]ccc23)cc1` [Example 51, N-[(1-ethyl-1H-pyrazol-5-yl)methyl]-4-(1H-pyrrolo[3,2-c]pyridin-4-yl)benzamide]: the 50% inhibitory concentration (IC50) stood at 0.63 nM.

For the compound `CC(=O)NCCCCNC(=O)c1ccc(-c2nccc3[nH]ccc23)cc1` [Example 29, N-(4-acetamidobutyl)-4-(1H-pyrrolo[3,2-c]pyridin-4-yl)benzamide], the IC50 was 0.46 nM.

With `CCc1cc2occc2c(-c2ccc(C(=O)N[C@H]3CC[C@H](C(C)(C)O)CC3)cc2)n1` [Example 314, 4-(6-ethylfuro[3,2-c]pyridin-4-yl)-N-[trans-4-(2-hydroxypropan-2-yl)cyclohexyl]benzamide], the IC50 amounted to 70 nM.

On to `Cn1c(N2CCC(NC(=O)c3ccc(-c4nccc5occc45)cc3)CC2)cccc1=O` [Example 184, 4-(furo[3,2-c]pyridin-4-yl)-N-[1-(1-methyl-6-oxo-1,6-dihydropyridin-2-yl)piperidin-4-yl]benzamide], for which the 50% inhibitory concentration (IC50) turned out to be 2.1 nM.

Take `O=C(NCc1ccncc1)c1ccc(-c2nccc3[nH]ccc23)cc1` [Example 11, N-(pyridin-4-ylmethyl)-4-(1H-pyrrolo[3,2-c]pyridin-4-yl)benzamide]: the IC50 is 1.7 nM.

`O=C(N[C@H]1CC[C@H](O)CC1)c1ccc(-c2nccc3occc23)cc1` [Example 256, 4-(furo[3,2-c]pyridin-4-yl)-N-(trans-4-hydroxycyclohexyl)benzamide]: the half-maximal inhibitory concentration (IC50) was 2.6 nM.

Regarding `O=C(NC1CC1)c1ccc(-c2nccc3occc23)cc1` [Example 95, N-cyclopropyl-4-(furo[3,2-c]pyridin-4-yl)benzamide], the IC50 is 8.7 nM.

Regarding `Cn1ccnc1CNC(=O)c1ccc(-c2nccc3[nH]ccc23)cc1` [Example 52, N-[(1-methyl-1H-imidazol-2-yl)methyl]-4-(1H-pyrrolo[3,2-c]pyridin-4-yl)benzamide], the half-inhibitory concentration (IC50) was 1.6 nM.

Turning to `CC(C)NC(=O)c1ccc(-c2nccc3[nH]ccc23)cc1` [Example 15, N-isopropyl-4-(1H-pyrrolo[3,2-c]pyridin-4-yl)benzamide], the half-maximal inhibitory concentration (IC50) was determined as 0.99 nM.

`CC(C)(O)[C@H]1CC[C@H](NC(=O)c2ccc(-c3nccc4occc34)c(O)c2)CC1` [Example 134, 4-(furo[3,2-c]pyridin-4-yl)-3-hydroxy-N-[trans-4-(2-hydroxypropan-2-yl)cyclohexyl]benzamide]: the IC50 amounted to 6.6 nM.

In the case of `Cc1cc2occc2c(-c2ccc(C(=O)NC3CCN(c4nnnn4C)CC3)cc2)n1` [Example 330, N-[1-(1-methyl-1H-tetrazol-5-yl)piperidin-4-yl]-4-(6-methylfuro[3,2-c]pyridin-4-yl)benzamide], the half-inhibitory concentration (IC50) is 1.7 nM.

As to `O=C(NC1CCN(c2ncc(F)cn2)CC1)c1ccc(-c2nccc3occc23)cc1` [Example 157, N-[1-(5-fluoropyrimidin-2-yl)piperidin-4-yl]-4-(furo[3,2-c]pyridin-4-yl)benzamide], the IC50 was found to be 3 nM.

Turning to `N#CN1CCC(NC(=O)c2ccc(-c3nccc4occc34)cc2)CC1` [Example 247, N-(1-cyanopiperidin-4-yl)-4-(furo[3,2-c]pyridin-4-yl)benzamide], the IC50 was 2.3 nM.

As to `CC(C)[C@]1(O)CC[C@@H](NC(=O)c2ccc(-c3nccc4occc34)cc2)CC1` [Example 292, 4-(furo[3,2-c]pyridin-4-yl)-N-(cis-4-hydroxy-4-isopropylcyclohexyl)benzamide], the concentration for half-maximal inhibition (IC50) is 1.9 nM.

`O=C(NC1CCN(c2nn[nH]n2)CC1)c1ccc(-c2nccc3occc23)cc1` [Example 248, N-[1-(1H-tetrazol-5-yl)piperidin-4-yl]-4-(furo[3,2-c]pyridin-4-yl)benzamide]: the IC50 stood at 4.4 nM.

In the case of `Cc1nn(C)c(C)c1CNC(=O)c1ccc(-c2nccc3[nH]ccc23)cc1` [Example 40, 4-(1H-pyrrolo[3,2-c]pyridin-4-yl)-N-[(1,3,5-trimethyl-1H-pyrazol-4-yl)methyl] benzamide], the 50% inhibitory concentration (IC50) amounted to 0.89 nM.

Consider `O=C(NCC1CCCO1)c1ccc(-c2nccc3occc23)cc1` (centres unmarked) [Example 94, 4-(furo[3,2-c]pyridin-4-yl)-N-[(tetrahydro-furan-2-yl)methyl] benzamide], for which the 50% inhibitory concentration (IC50) came to 12 nM.

Source of the values: patent US20230339937A1, “CONDENSED RING COMPOUNDS THAT INHIBIT H-PGDS” (SATO PHARMACEUTICAL CO., LTD., priority 2020, published 2023).
